How the values were obtained:
Assay type in all cases: in vivo
Conditions in all cases: evaluated after 13 days
Setaria faberi (SETFA) [1] = experiment: Post-emergence herbicidal glasshouse test (Table B1)
Description: (§1) Seeds of a variety of test species are sown in standard soil in pots (Lolium perenne (LOLPE), Amaranthus retoflexus (AMARE), Abutilon theophrasti (ABUTH), Setaria faberi (SETFA), Echinochloa crus-galh (ECHCG), Ipomoea hederacea (IPOHE)). After cultivation for one day (pre-emergence) or after 8 days cultivation (post-emergence) under controlled conditions in a glasshouse (at 24/16° C., day/night; 14 hours light; 65% humidity), the plants are sprayed with an aqueous spray solution derived from the formulation of the technical active ingredient in acetone/water (50:50) solution containing 0.5% Tween 20 (polyoxyethelyene sorbitan monolaurate, CAS RN 9005-64-5). Compounds are applied at 500 g/h unless otherwise indicated. The test plants are then grown in a glasshouse under controlled conditions in a glasshouse (at 24/16° C., day/night; 14 hours light; 65% humidity) and watered twice daily. After 13 days for pre and post-emergence, the test is evaluated for the percentage damage caused to the plant. The biological activities are shown in the following table on a five-point scale (5=80-100%; 4=60-79%; 3=40-59%; 2=20-39%; 1=0-19%).

[2] = system: Echinochloa crus-galh (ECHCG); experiment: as above
Description: as §1

[3] = system: Amaranthus retoflexus (AMARE); experiment: as above
Description: as §1

[4] = system: Ipomoea hederacea (IPOHE); experiment: as above
Description: as §1

Setaria faberi (SETFA) [5] = experiment: Pre-emergence herbicidal glasshouse test (Table B1)
Description: as §1

[6] = system: Echinochloa crus-galh (ECHCG); experiment: as above
Description: as §1

[7] = system: Amaranthus retoflexus (AMARE); experiment: as above
Description: as §1

[8] = system: Ipomoea hederacea (IPOHE); experiment: as above
Description: as §1

[9] = system: Abutilon theophrasti (ABUTH); experiment: as above
Description: as §1

Compound | POST Application SETFA, percentage damage on five-point scale (Setaria faberi (SETFA) [1]; applied at 125 g/ha) | POST Application ECHCG, percentage damage on five-point scale ([2]; applied at 125 g/ha) | POST Application AMARE, percentage damage on five-point scale ([3]; applied at 125 g/ha) | POST Application IPOHE, percentage damage on five-point scale ([4]; applied at 125 g/ha) | PRE Application SETFA, percentage damage on five-point scale (Setaria faberi (SETFA) [5]; applied at 125 g/ha) | PRE Application ECHCG, percentage damage on five-point scale ([6]; applied at 125 g/ha) | PRE Application AMARE, percentage damage on five-point scale ([7]; applied at 125 g/ha) | PRE Application IPOHE, percentage damage on five-point scale ([8]; applied at 125 g/ha) | PRE Application ABUTH, percentage damage on five-point scale ([9]; applied at 125 g/ha) | POST Application SETFA, percentage damage on five-point scale (Setaria faberi (SETFA) [1]; applied at 500 g/h) | POST Application ECHCG, percentage damage on five-point scale ([2]; applied at 500 g/h) | POST Application AMARE, percentage damage on five-point scale ([3]; applied at 500 g/h) | POST Application IPOHE, percentage damage on five-point scale ([4]; applied at 500 g/h) | PRE Application SETFA, percentage damage on five-point scale (Setaria faberi (SETFA) [5]; applied at 500 g/h) | PRE Application ECHCG, percentage damage on five-point scale ([6]; applied at 500 g/h) | PRE Application AMARE, percentage damage on five-point scale ([7]; applied at 500 g/h) | PRE Application IPOHE, percentage damage on five-point scale ([8]; applied) | PRE Application ABUTH, percentage damage on five-point scale ([9]; applied at 500 g/h)
CCOCCC(=O)Nc1c(OC(F)(F)F)ccc(C(=O)Nc2nnnn2CC)c1Cl [Compound 1.077] | 5 (5=80-100%) | 5 (5=80-100%) | 5 (5=80-100%) | 4 (4=60-79%) | 3 (3=40-59%) | 5 (5=80-100%) | 5 (5=80-100%) | 5 (5=80-100%) | 5 (5=80-100%) | – | – | – | – | – | – | – | – | –
CCC(=O)Nc1c(OC(F)(F)F)ccc(C(=O)Nc2nnnn2C)c1C [Compound 1.078] | 5 (5=80-100%) | 5 (5=80-100%) | 5 (5=80-100%) | 4 (4=60-79%) | 4 (4=60-79%) | 5 (5=80-100%) | 5 (5=80-100%) | 4 (4=60-79%) | 5 (5=80-100%) | – | – | – | – | – | – | – | – | –
CCC(=O)Nc1c(OC(F)(F)F)ccc(C(=O)Nc2nnnn2CC)c1C [Compound 1.079] | 4 (4=60-79%) | 5 (5=80-100%) | 4 (4=60-79%) | 4 (4=60-79%) | 4 (4=60-79%) | 5 (5=80-100%) | 5 (5=80-100%) | 4 (4=60-79%) | 5 (5=80-100%) | – | – | – | – | – | – | – | – | –
Cn1nnnc1NC(=O)c1ccc(OC(F)F)c(NC(=O)c2ncc(C(F)(F)F)cc2Cl)c1Cl [Compound 1.081] | 3 (3=40-59%) | 3 (3=40-59%) | 4 (4=60-79%) | 4 (4=60-79%) | 1 (1=0-19%) | 1 (1=0-19%) | 5 (5=80-100%) | 1 (1=0-19%) | 5 (5=80-100%) | – | – | – | – | – | – | – | – | –
CCC(=O)N(CC)c1c(OC(F)F)ccc(C(=O)Nc2nnnn2C)c1C(F)(F)F [Compound 1.091] | 4 (4=60-79%) | 5 (5=80-100%) | 4 (4=60-79%) | 3 (3=40-59%) | 4 (4=60-79%) | 5 (5=80-100%) | 5 (5=80-100%) | 3 (3=40-59%) | 5 (5=80-100%) | – | – | – | – | – | – | – | – | –
CCn1nnnc1NC(=O)c1ccc(OC(F)(F)F)c(NC(=O)c2ncccc2F)c1Cl [Compound 1.094] | – | – | – | – | – | – | – | – | – | 5 (5=80-100%) | 5 (5=80-100%) | 5 (5=80-100%) | 5 (5=80-100%) | 1 (1=0-19%) | 1 (1=0-19%) | 5 (5=80-100%) | 1 (1=0-19%) | 1 (1=0-19%)

Source: patent publication US20230219904A1 (SYNGENTA CROP PROTECTION AG, priority 2020, published 2023)
